Patent US11261177B2, “Benzoxazinone derivatives useful as herbicides” (REDAG CROP PROTECTION LTD, priority 2017, dated 2022)

Legend:
Assay type in all cases: in vivo
[1] = tested on: Stellaria media—Chickweed; assay: Pre-emergence herbicidal assay, 96 cell trays, glasshouse; settings: 168 h, assessed 7 days after treatment, read-out: % control of plant growth; for pest or weed control at 200 g/ha: 0.2 kg/ha; for pest or weed control at 1000 g/ha: 1 kg/ha; for pest or weed control at 5000 g/ha: 5 kg/ha
Protocol: (§1) The compounds were screened at three concentrations (0.2, 1 and 5 kg/ha) against 2 weed species (Stellaria media—Chickweed and Lolium perenne). The seeds were sown in the cells of 96 cell trays (4-6 seeds per cell). For the pre-emergence assay, 75 μL of a suspension of the test compound, at the above doses, was added on top of the soil 1 day after sowing. For the post-emergence assay, the seedlings were sprayed with 200 μL of a suspension of the test compound two weeks after sowing. The formulation used is 25% acetone and 75% water/0.01% Tween 20. Each treatment was replicated three times. The plants were kept in a glasshouse (uncontrolled conditions) and assessed 7 days after treatment. A small number of compounds were tested in a first trial. A larger number of compounds were tested in a second trial. The assessment was based on the % control of plant growth in each cell.

Lolium perenne [2] = assay: as above; settings: 168 h, Lollium, assessed 7 days after treatment, read-out: % control of plant growth; for pest or weed control at 200 g/ha: 0.2 kg/ha; for pest or weed control at 1000 g/ha: 1 kg/ha; for pest or weed control at 5000 g/ha: 5 kg/ha
Protocol: as §1

[3] = tested on: 2 weed species (Stellaria media—Chickweed and Lolium perenne); assay: Herbicidal activity screen, summary in words over both weed species; settings: pre- and post-emergence, 0.2, 1 and 5 kg/ha
Protocol: as §1

[4] = tested on: Stellaria media—Chickweed; assay: Post-emergence herbicidal assay, 96 cell trays, glasshouse; settings: 168 h, assessed 7 days after treatment, read-out: % control of plant growth; for pest or weed control at 200 g/ha: 0.2 kg/ha; for pest or weed control at 1000 g/ha: 1 kg/ha; for pest or weed control at 5000 g/ha: 5 kg/ha
Protocol: as §1

Lolium perenne [5] = assay: as above; settings: 168 h, Lollium, assessed 7 days after treatment, read-out: % control of plant growth; for pest or weed control at 200 g/ha: 0.2 kg/ha; for pest or weed control at 1000 g/ha: 1 kg/ha; for pest or weed control at 5000 g/ha: 5 kg/ha
Protocol: as §1

Row | SMILES | pest or weed control at 200 g/ha ([1]; second trial (Table 2)) [%] | pest or weed control at 1000 g/ha ([1]; second trial (Table 2)) [%] | pest or weed control at 5000 g/ha ([1]; second trial (Table 2)) [%] | pest or weed control at 200 g/ha (Lolium perenne [2]; second trial (Table 2)) [%] | pest or weed control at 1000 g/ha (Lolium perenne [2]; second trial (Table 2)) [%] | pest or weed control at 5000 g/ha (Lolium perenne [2]; second trial (Table 2)) [%] | herbicidal activity [3] | pest or weed control at 200 g/ha ([4]; second trial (Table 2)) [%] | pest or weed control at 1000 g/ha ([4]; second trial (Table 2)) [%] | pest or weed control at 5000 g/ha ([4]; second trial (Table 2)) [%] | pest or weed control at 200 g/ha (Lolium perenne [5]; second trial (Table 2)) [%] | pest or weed control at 1000 g/ha (Lolium perenne [5]; second trial (Table 2)) [%] | pest or weed control at 5000 g/ha (Lolium perenne [5]; second trial (Table 2)) [%] | further results
1 | C#CCN1C(=O)C2(CC2)Oc2cc(F)c(N3C(=O)CCC3=O)cc21 [Example 28, 1-(7-Fluoro-3-oxo-4-(prop-2-yn-1-yl)-3,4-dihydrospiro[benzo[b][1,4]oxazine-2,1′-cyclopropan]-6-yl)pyrrolidine-2,5-dione] | 80 to 100 | 80 to 100 | 80 to 100 | 80 to 100 | 80 to 100 | 80 to 100 | excellent herbicidal activity against all tested species | 80 to 100 | 80 to 100 | 80 to 100 | 20 to 80 | 80 to 100 | 80 to 100 | 
2 | CCOC(=O)C(C)N1C(=O)C2(CC2)Oc2cc(F)c(N3C(=O)c4ccc(F)cc4C3=O)cc21 (centres unmarked) [Example 19] | 80 to 100 | 80 to 100 | 80 to 100 | 20 to 80 | 80 to 100 | 80 to 100 | excellent herbicidal activity against all tested species | 80 to 100 | 80 to 100 | 80 to 100 | 20 to 80 | 80 to 100 | 80 to 100 | 
3 | COCCN1C(=O)C2(CC2)Oc2cc(F)c(N3C(=O)c4ccc(F)cc4C3=O)cc21 [Example 27] | 80 to 100 | 80 to 100 | 80 to 100 | 20 to 80 | 80 to 100 | 80 to 100 | excellent herbicidal activity against all tested species | 80 to 100 | 80 to 100 | 80 to 100 | 20 to 80 | 80 to 100 | 80 to 100 | 
4 | C#CCN1C(=O)C2(CC2)Oc2cc(F)c(-n3ncc(C(F)(F)F)c(C)c3=O)cc21 [Example 4, 7-Fluoro-6-(5-methyl-6-oxo-4-(trifluoromethyl)pyridazin-1(6H)-yl)-4-(prop-2-yn-1-yl)spiro[benzo[b][1,4]oxazine-2,1′-cyclopropan]-3(4H)-one] | 80 to 100 | 80 to 100 | 80 to 100 | 80 to 100 | 80 to 100 | 80 to 100 | excellent herbicidal activity against all tested species | 80 to 100 | 80 to 100 | 80 to 100 | 80 to 100 | 80 to 100 | 80 to 100 | pest or weed control at 200 g/ha ([1]; first trial (Table 1)): 80 to 100%; pest or weed control at 1000 g/ha ([1]; first trial (Table 1)): 80 to 100%; pest or weed control at 5000 g/ha ([1]; first trial (Table 1)): 80 to 100%; pest or weed control at 200 g/ha (Lolium perenne [2]; first trial (Table 1)): 80 to 100%; pest or weed control at 1000 g/ha (Lolium perenne [2]; first trial (Table 1)): 80 to 100%; pest or weed control at 5000 g/ha (Lolium perenne [2]; first trial (Table 1)): 80 to 100%; pest or weed control at 200 g/ha ([4]; first trial (Table 1)): 20 to 80%; pest or weed control at 1000 g/ha ([4]; first trial (Table 1)): 20 to 80%; pest or weed control at 5000 g/ha ([4]; first trial (Table 1)): 20 to 80%; pest or weed control at 200 g/ha (Lolium perenne [5]; first trial (Table 1)): 80 to 100%; pest or weed control at 1000 g/ha (Lolium perenne [5]; first trial (Table 1)): 80 to 100%; pest or weed control at 5000 g/ha (Lolium perenne [5]; first trial (Table 1)): 80 to 100%
5 | C#CCN1C(=O)C2(CC2)Oc2cc(F)c(-n3c(=O)cc(C(F)(F)F)n(CCC)c3=O)cc21 [Example 43] | 20 to 80 | 80 to 100 | 80 to 100 | 20 to 80 | 80 to 100 | 80 to 100 | excellent herbicidal activity against all tested species | 80 to 100 | 80 to 100 | 80 to 100 | 20 to 80 | 20 to 80 | 80 to 100 | 
6 | CCOC(=O)C(C)N1C(=O)C2(CC2)Oc2cc(F)c(N3C(=O)C4=C(CCCC4)C3=O)cc21 (centres unmarked) [Example 18] | 80 to 100 | 80 to 100 | 80 to 100 | 80 to 100 | 80 to 100 | 80 to 100 | excellent herbicidal activity against all tested species | 80 to 100 | 80 to 100 | 80 to 100 | 20 to 80 | 80 to 100 | 80 to 100 | 
7 | C#CCN1C(=O)C2(CC2)Oc2cc(F)c(N3C(=O)C4CCCCN4C3=O)cc21 (centres unmarked) [Example 47] | 80 to 100 | 80 to 100 | 80 to 100 | 20 to 80 | 80 to 100 | 80 to 100 | excellent herbicidal activity against all tested species | 80 to 100 | 80 to 100 | 80 to 100 | 80 to 100 | 80 to 100 | 80 to 100 | 
8 | CCOC(=O)C(C)N1C(=O)C2(CC2)Oc2cc(F)c(N3C(=O)C=C(C(F)(F)F)C3=O)cc21 (centres unmarked) [Example 20] | < 20 | 20 to 80 | 20 to 80 | < 20 | < 20 | < 20 |  | 20 to 80 | 80 to 100 | 80 to 100 | < 20 | < 20 | < 20 | 
9 | C#CCN1C(=O)C2(CC2)Oc2cc(F)c(N3C(=O)CC(C)CC3=O)cc21 [Example 29, 1-(7-Fluoro-3-oxo-4-(prop-2-yn-1-yl)-3,4-dihydrospiro[benzo[b][1,4]oxazine-2,1′-cyclopropan]-6-yl)-4-methylpiperidine-2,6-dione] | 80 to 100 | 80 to 100 | 80 to 100 | 80 to 100 | 80 to 100 | 80 to 100 | excellent herbicidal activity against all tested species | 80 to 100 | 80 to 100 | 80 to 100 | < 20 | 20 to 80 | 20 to 80 | 
10 | C#CCN1C(=O)C2(CC2)Oc2cc(F)c(N3C(=O)c4ccc(OC)cc4C3=O)cc21 [Example 10] | 20 to 80 | 80 to 100 | 80 to 100 | < 20 | < 20 | < 20 |  | 20 to 80 | 80 to 100 | 80 to 100 | < 20 | < 20 | < 20 | 
11 | C#CCN1C(=O)C2(CC2)Oc2cc(F)c(-n3c(=O)n(C)c(=S)n(C)c3=O)cc21 [Comparative Example, 3-(7-Fluoro-3-oxo-4-(prop-2-yn-1-yl)-3,4-dihydrospiro[benzo[b][1,4]oxazine-2,1′-cyclopropan]-6-yl)-1,5-dimethyl-6-thioxo-1,3,5-triazinane-2,4-dione, reference compound] | 20 to 80 | 80 to 100 | 80 to 100 | < 20 | 20 to 80 | 80 to 100 |  | 20 to 80 | 80 to 100 | 80 to 100 | 20 to 80 | 20 to 80 | 80 to 100 | pest or weed control at 200 g/ha ([1]; first trial (Table 1)): < 20%; pest or weed control at 1000 g/ha ([1]; first trial (Table 1)): < 20%; pest or weed control at 5000 g/ha ([1]; first trial (Table 1)): < 20%; pest or weed control at 200 g/ha (Lolium perenne [2]; first trial (Table 1)): < 20%; pest or weed control at 1000 g/ha (Lolium perenne [2]; first trial (Table 1)): 20 to 80%; pest or weed control at 5000 g/ha (Lolium perenne [2]; first trial (Table 1)): 80 to 100%; pest or weed control at 200 g/ha ([4]; first trial (Table 1)): < 20%; pest or weed control at 1000 g/ha ([4]; first trial (Table 1)): 20 to 80%; pest or weed control at 5000 g/ha ([4]; first trial (Table 1)): 20 to 80%; pest or weed control at 200 g/ha (Lolium perenne [5]; first trial (Table 1)): 20 to 80%; pest or weed control at 1000 g/ha (Lolium perenne [5]; first trial (Table 1)): 20 to 80%; pest or weed control at 5000 g/ha (Lolium perenne [5]; first trial (Table 1)): 80 to 100%
